From ChEMBL document CHEMBL3351988, “Synthesis and biological evaluation of novel 6-chloro-quinazolin derivatives as potential antitumor agents” (Eur J Med Chem, 2014)
Counter-ions that a name gives are not always drawn. Activity calls are given as the source filed them. No cut-off for these calls is given here.

Tests used:
[1] = system: Bcap37; assay: Growth inhibition of human Bcap37 cells at 10 uM after 72 hrs by MTT assay; type: functional; conditions: Bcap37, 72 h, read-out: GI
[2] = system: Bcap37; assay: Growth inhibition of human Bcap37 cells after 72 hrs by MTT assay; type: functional, cell-based; conditions: Bcap37, 72 h
[3] = Growth inhibition of human PC3 cells at 10 uM after 72 hrs by MTT assay; type: functional; conditions: PC-3, 72 h, read-out: GI
[4] = system: MGC-803; assay: Growth inhibition of human MGC803 cells at 10 uM after 72 hrs by MTT assay; type: functional; conditions: MGC-803, 72 h, read-out: GI
[5] = system: MGC-803; assay: Growth inhibition of human MGC803 cells after 72 hrs by MTT assay; type: functional, cell-based; conditions: MGC-803, 72 h
[6] = Growth inhibition of human PC3 cells after 72 hrs by MTT assay; type: functional, cell-based; conditions: PC-3, 72 h
[7] = system: MGC-803; assay: Induction of apoptosis in human MGC803 cells at 1 uM after 24 hrs by Annexin V-FITC staining based flow cytometry; type: functional
[8] = system: MGC-803; assay: Induction of apoptosis in human MGC803 cells assessed as condensed chromatin at 1 to 10 uM after 12 hrs by Hoechst 33258 staining based fluorescence microscopy; type: functional, cell-based
[9] = system: MGC-803; assay: Induction of apoptosis in human MGC803 cells at 5 uM after 12 hrs by Annexin V-FITC staining based flow cytometry; type: functional
[10] = system: Bcap37; assay: Induction of apoptosis in human Bcap37 cells assessed as cell volume reduction at 1 to 10 uM after 12 hrs by AO/EB staining based fluorescence microscopy; type: functional
[11] = system: MGC-803; assay: Induction of apoptosis in human MGC803 cells assessed as nuclear fragmentation at 1 to 10 uM after 12 hrs by AO/EB staining based fluorescence microscopy; type: functional, cell-based
[12] = system: MGC-803; assay: Induction of apoptosis in human MGC803 cells at 10 uM after 24 hrs by Annexin V-FITC staining based flow cytometry; type: functional
[13] = system: MGC-803; assay: Induction of apoptosis in human MGC803 cells at 5 uM after 6 hrs by Annexin V-FITC staining based flow cytometry; type: functional
[14] = system: Bcap37; assay: Induction of apoptosis in human Bcap37 cells assessed as DNA fragmentation at 10 uM after 12 hrs by TUNEL assay; type: functional, cell-based
[15] = system: MGC-803; assay: Induction of apoptosis in human MGC803 cells at 10 uM after 6 hrs by Annexin V-FITC staining based flow cytometry; type: functional
[16] = system: MGC-803; assay: Induction of apoptosis in human MGC803 cells at 5 uM after 24 hrs by Annexin V-FITC staining based flow cytometry; type: functional
[17] = system: Bcap37; assay: Induction of apoptosis in human Bcap37 cells assessed as nuclear fragmentation at 1 to 10 uM after 12 hrs by AO/EB staining based fluorescence microscopy; type: functional, cell-based
[18] = system: MGC-803; assay: Induction of apoptosis in human MGC803 cells assessed as DNA fragmentation at 10 uM after 12 hrs by TUNEL assay; type: functional, cell-based
[19] = system: MGC-803; assay: Induction of apoptosis in human MGC803 cells assessed as cell volume reduction at 1 to 10 uM after 12 hrs by AO/EB staining based fluorescence microscopy; type: functional
[20] = system: Bcap37; assay: Induction of apoptosis in human Bcap37 cells assessed as condensed chromatin at 1 to 10 uM after 12 hrs by Hoechst 33258 staining based fluorescence microscopy; type: functional, cell-based
[21] = system: MGC-803; assay: Induction of apoptosis in human MGC803 cells at 1 uM after 6 hrs by Annexin V-FITC staining based flow cytometry; type: functional
[22] = system: MGC-803; assay: Induction of apoptosis in human MGC803 cells at 1 uM after 12 hrs by Annexin V-FITC staining based flow cytometry; type: functional
[23] = system: Bcap37; assay: Induction of apoptosis in human Bcap37 cells assessed as chromatin condensation at 1 to 10 uM after 12 hrs by AO/EB staining based fluorescence microscopy; type: functional, cell-based
[24] = system: MGC-803; assay: Induction of apoptosis in human MGC803 cells at 10 uM after 12 hrs by Annexin V-FITC staining based flow cytometry; type: functional
[25] = system: MGC-803; assay: Induction of apoptosis in human MGC803 cells assessed as chromatin condensation at 1 to 10 uM after 12 hrs by AO/EB staining based fluorescence microscopy; type: functional, cell-based
[26] = system: MGC-803; assay: Induction of apoptosis in human MGC803 cells assessed as condensed chromatin at 10 uM after 12 hrs by Hoechst 33258 staining based fluorescence microscopy; type: functional, cell-based
[27] = system: Bcap37; assay: Induction of apoptosis in human Bcap37 cells assessed as early apoptotic cell level at 10 uM after 12 hrs by AO/EB staining based fluorescence microscopy; type: functional
[28] = system: Bcap37; assay: Induction of apoptosis in human Bcap37 cells assessed as condensed chromatin at 10 uM after 12 hrs by Hoechst 33258 staining based fluorescence microscopy; type: functional, cell-based
[29] = system: Bcap37; assay: Induction of apoptosis in human Bcap37 cells assessed as late apoptotic cell level at 10 uM after 12 hrs by AO/EB staining based fluorescence microscopy; type: functional
[30] = system: MGC-803; assay: Induction of apoptosis in human MGC803 cells assessed as late apoptotic cell level at 10 uM after 12 hrs by AO/EB staining based fluorescence microscopy; type: functional
[31] = system: MGC-803; assay: Induction of apoptosis in human MGC803 cells assessed as early apoptotic cell level at 10 uM after 12 hrs by AO/EB staining based fluorescence microscopy; type: functional

O=C(/C=C/c1ccc(Oc2ncnc3ccc(Cl)cc23)cc1)/C=C/c1cccc(Cl)c1Cl
inhibition of growth at 10 µM [1]: 61.7% | IC50 [2]: 14.3 µM | inhibition of growth at 10 µM [3]: 67.4% | inhibition of growth at 10 µM [4]: 68.5% | IC50 [5]: 7.3 µM | IC50 [6]: 10.2 µM

O=C(/C=C/c1ccc(Cl)c([N+](=O)[O-])c1)/C=C/c1ccccc1Oc1ncnc2ccc(Cl)cc12
inhibition of growth at 10 µM [1]: 52.5% | IC50 [2]: 12.3 µM | inhibition of growth at 10 µM [3]: 62.5% | inhibition of growth at 10 µM [4]: 70.2% | IC50 [5]: 5.32 µM | IC50 [6]: 9.76 µM

O=C(/C=C/c1ccc(Oc2ncnc3ccc(Cl)cc23)cc1)/C=C/c1cc([N+](=O)[O-])ccc1Cl
Activity [7]: 4.3% | inhibition of growth at 10 µM [1]: 72.5% | IC50 [2]: 9.84 µM | Activity [8]: Active | Activity [9]: 5.6% | Activity [10]: Active | Activity [11]: Active | Activity [12]: 21.9% | inhibition of growth at 10 µM [3]: 76.8% | inhibition of growth at 10 µM [4]: 86.7% | Activity [13]: 1.7% | Activity [14]: Active | Activity [15]: 4.2% | IC50 [5]: 2.15 µM | Activity [16]: 9.8% | Activity [17]: Active | Activity [18]: Active | Activity [19]: Active | Activity [20]: Active | Activity [21]: 1.2% | Activity [22]: 1.8% | Activity [23]: Active | Activity [24]: 8.9% | Activity [25]: Active | IC50 [6]: 3.15 µM

COc1cccc2c1C(=O)c1c(O)c3c(c(O)c1C2=O)C[C@@](O)(C(=O)CO)C[C@@H]3O[C@H]1C[C@H](N)[C@H](O)[C@H](C)O1 [DOXORUBICIN HYDROCHLORIDE]
inhibition of growth at 10 µM [1]: 96.2% | IC50 [2]: 0.94 µM | inhibition of growth at 10 µM [3]: 93.5% | inhibition of growth at 10 µM [4]: 95.8% | IC50 [5]: 0.71 µM | IC50 [6]: 0.8 µM

O=C(/C=C/c1ccc(Oc2ncnc3ccc(Cl)cc23)cc1)/C=C/c1ccc(Cl)c([N+](=O)[O-])c1
inhibition of growth at 10 µM [1]: 56.3% | IC50 [2]: 16.2 µM | inhibition of growth at 10 µM [3]: 56.3% | inhibition of growth at 10 µM [4]: 66.2% | IC50 [5]: 7.19 µM | IC50 [6]: 11.8 µM

O=C(/C=C/c1ccc(Cl)c(Cl)c1)/C=C/c1ccccc1Oc1ncnc2ccc(Cl)cc12
inhibition of growth at 10 µM [1]: 38.2% | IC50 [2]: 21.2 µM | inhibition of growth at 10 µM [3]: 42.2% | inhibition of growth at 10 µM [4]: 56.7% | IC50 [5]: 16.1 µM | IC50 [6]: 18.3 µM

O=C(/C=C/c1ccc(Oc2ncnc3ccc(Cl)cc23)cc1)/C=C/c1c(Cl)cccc1Cl
inhibition of growth at 10 µM [1]: 62.5% | IC50 [2]: 13.8 µM | inhibition of growth at 10 µM [3]: 67.5% | inhibition of growth at 10 µM [4]: 61.7% | IC50 [5]: 6.77 µM | IC50 [6]: 9.3 µM

CC[C@@]1(O)C(=O)OCc2c1cc1n(c2=O)Cc2cc3cc(O)ccc3nc2-1 [HYDROXYCAMPTOTHECIN]
Activity [26]: Active | Activity [7]: 3.8% | Activity [27]: Active | Activity [9]: 6% | Activity [12]: 18.6% | Activity [13]: 1.8% | Activity [14]: Active | Activity [15]: 3.5% | Activity [16]: 7.3% | Activity [18]: Active | Activity [28]: Active | Activity [29]: Active | Activity [21]: 1.3% | Activity [22]: 2.1% | Activity [24]: 9.1% | Activity [30]: Active | Activity [31]: Active

O=C(/C=C/c1ccccc1Oc1ncnc2ccc(Cl)cc12)/C=C/c1cccc(Cl)c1Cl
inhibition of growth at 10 µM [1]: 70.2% | IC50 [2]: 11.5 µM | inhibition of growth at 10 µM [3]: 73.8% | inhibition of growth at 10 µM [4]: 76.5% | IC50 [5]: 5.21 µM | IC50 [6]: 8.35 µM

O=C(/C=C/c1ccc(Oc2ncnc3ccc(Cl)cc23)cc1)/C=C/c1ccc(Cl)c(Cl)c1
inhibition of growth at 10 µM [1]: 34.5% | IC50 [2]: 27.9 µM | inhibition of growth at 10 µM [3]: 33.5% | inhibition of growth at 10 µM [4]: 50.5% | IC50 [5]: 16.9 µM | IC50 [6]: 18.8 µM

O=C(/C=C/c1ccccc1Oc1ncnc2ccc(Cl)cc12)/C=C/c1c(Cl)cccc1Cl
inhibition of growth at 10 µM [1]: 67.1% | IC50 [2]: 11.3 µM | inhibition of growth at 10 µM [3]: 70.1% | inhibition of growth at 10 µM [4]: 69.3% | IC50 [5]: 5.17 µM | IC50 [6]: 7.98 µM

O=C(/C=C/c1cc([N+](=O)[O-])ccc1Cl)/C=C/c1ccccc1Oc1ncnc2ccc(Cl)cc12
Activity [7]: 5.2% | inhibition of growth at 10 µM [1]: 78.4% | IC50 [2]: 8.47 µM | Activity [8]: Active | Activity [9]: 9.2% | Activity [10]: Active | Activity [11]: Active | Activity [12]: 31.7% | inhibition of growth at 10 µM [3]: 86.9% | inhibition of growth at 10 µM [4]: 91.6% | Activity [13]: 6.7% | Activity [14]: Active | Activity [15]: 10.3% | IC50 [5]: 1.96 µM | Activity [16]: 16.8% | Activity [17]: Active | Activity [18]: Active | Activity [19]: Active | Activity [20]: Active | Activity [21]: 2% | Activity [22]: 3.5% | Activity [23]: Active | Activity [24]: 15.7% | Activity [25]: Active | IC50 [6]: 2.51 µM
